The target in test [1] is Acetylcholinesterase (Electrophorus electricus, UniProt O42275). Kind of test: Inhibitory activity against Acetylcholinesterase in electric eel.
For test [2], the target named is T1, Acetylcholinesterase (Homo sapiens, UniProt P22303). Kind of test: Inhibitory activity against Acetylcholinesterase in cortex. The class given is tissue-based.
Test [3] deals with T1, Acetylcholinesterase. Kind of test: Inhibitory activity against Acetylcholinesterase in erythrocyte.
Test [4] deals with T2, Cholinesterase (Homo sapiens, UniProt P06276). Briefly: Inhibitory activity against Butyrylcholinesterase in cortex. Type of test: tissue-based.
T2 sequence (P06276 whole entry): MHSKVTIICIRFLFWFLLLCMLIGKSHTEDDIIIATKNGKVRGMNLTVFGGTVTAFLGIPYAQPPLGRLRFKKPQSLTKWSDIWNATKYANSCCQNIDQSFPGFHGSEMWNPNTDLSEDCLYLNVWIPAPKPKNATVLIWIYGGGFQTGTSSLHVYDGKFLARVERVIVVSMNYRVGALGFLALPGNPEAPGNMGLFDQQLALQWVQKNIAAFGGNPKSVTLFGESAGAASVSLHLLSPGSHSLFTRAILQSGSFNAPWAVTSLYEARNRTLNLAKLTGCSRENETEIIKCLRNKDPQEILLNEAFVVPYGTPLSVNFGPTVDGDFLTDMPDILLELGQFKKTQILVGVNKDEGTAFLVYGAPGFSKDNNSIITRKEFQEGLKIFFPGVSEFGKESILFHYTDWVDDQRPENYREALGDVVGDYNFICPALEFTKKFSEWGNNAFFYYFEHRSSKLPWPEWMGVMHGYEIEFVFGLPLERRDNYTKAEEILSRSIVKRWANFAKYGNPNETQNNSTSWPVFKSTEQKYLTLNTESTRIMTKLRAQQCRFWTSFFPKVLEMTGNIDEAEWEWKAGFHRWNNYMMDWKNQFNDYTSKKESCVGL
Test [5] has as its target T2, Cholinesterase. Kind of test: Inhibitory activity against Butyrylcholinesterase in plasma. The class given is cell-free.

T1 sequence (P22303 whole entry): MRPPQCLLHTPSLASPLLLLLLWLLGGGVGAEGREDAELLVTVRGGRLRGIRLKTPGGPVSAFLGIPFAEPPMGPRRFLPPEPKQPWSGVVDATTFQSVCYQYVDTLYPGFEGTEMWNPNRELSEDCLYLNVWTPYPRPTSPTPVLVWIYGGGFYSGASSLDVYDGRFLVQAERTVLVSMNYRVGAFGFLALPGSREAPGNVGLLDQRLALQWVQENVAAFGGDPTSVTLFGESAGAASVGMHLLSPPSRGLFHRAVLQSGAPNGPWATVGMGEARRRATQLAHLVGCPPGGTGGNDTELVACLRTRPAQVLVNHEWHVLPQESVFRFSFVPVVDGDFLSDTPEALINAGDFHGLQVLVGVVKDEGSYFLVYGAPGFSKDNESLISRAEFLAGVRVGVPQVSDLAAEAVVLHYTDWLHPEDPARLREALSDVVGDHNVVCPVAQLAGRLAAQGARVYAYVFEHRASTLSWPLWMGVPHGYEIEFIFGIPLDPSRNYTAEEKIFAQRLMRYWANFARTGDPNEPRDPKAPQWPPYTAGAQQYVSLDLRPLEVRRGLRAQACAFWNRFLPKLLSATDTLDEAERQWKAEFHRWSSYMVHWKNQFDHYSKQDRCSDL
Sequence of Acetylcholinesterase (Electrophorus electricus, UniProt O42275) (O42275 whole entry): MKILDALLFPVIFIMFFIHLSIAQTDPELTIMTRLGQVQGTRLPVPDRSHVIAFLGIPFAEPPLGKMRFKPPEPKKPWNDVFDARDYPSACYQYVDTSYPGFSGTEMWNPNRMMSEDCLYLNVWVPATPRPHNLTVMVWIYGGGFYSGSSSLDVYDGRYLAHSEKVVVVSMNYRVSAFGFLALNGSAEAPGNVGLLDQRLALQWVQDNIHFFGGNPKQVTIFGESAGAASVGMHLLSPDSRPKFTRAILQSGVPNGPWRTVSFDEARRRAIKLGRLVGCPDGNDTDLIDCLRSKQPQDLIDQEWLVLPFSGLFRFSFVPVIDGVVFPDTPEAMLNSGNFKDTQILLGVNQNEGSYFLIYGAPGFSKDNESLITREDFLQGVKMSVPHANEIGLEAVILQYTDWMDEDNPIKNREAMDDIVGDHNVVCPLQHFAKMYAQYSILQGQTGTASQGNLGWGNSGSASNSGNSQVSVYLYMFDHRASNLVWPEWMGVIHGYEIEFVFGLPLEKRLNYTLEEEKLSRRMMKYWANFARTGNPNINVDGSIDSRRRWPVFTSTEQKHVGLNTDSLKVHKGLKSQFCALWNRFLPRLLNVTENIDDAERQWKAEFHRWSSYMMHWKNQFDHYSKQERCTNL

As to `CN(C)C(=O)Oc1ccc2c(c1)[C@]1(C)CCN(C)[C@@H]1N2C`, the IC50 against Acetylcholinesterase [1] is 970 nM; against Acetylcholinesterase [2], 310 nM; at Acetylcholinesterase [3], 210 nM; on Cholinesterase [4], 3000 nM; against Cholinesterase [5] it was 420 nM.

As to `CN1CC[C@@]2(C)c3cc(OC(=O)NC(C)(C)C)ccc3N(C)[C@@H]12`, the IC50 was > 10000 nM against Acetylcholinesterase [1]; 32000 nM at Acetylcholinesterase [2]; 23000 nM at Acetylcholinesterase [3]; 11000 nM against Cholinesterase [4]; 2000 nM at Cholinesterase [5].

Consider `CNC(=O)Oc1ccc2c(c1)[C@]1(C)CCN(CCc3ccccc3)[C@@H]1N2C`, for which the values for the IC50 against Acetylcholinesterase [2] and against Acetylcholinesterase [3] were 150 nM and 220 nM, respectively.

As to `CCCCCCCCNC(=O)Oc1ccc2c(c1)[C@]1(C)CCN(C)[C@@H]1N2C`, the IC50 is 9 nM against Cholinesterase [4] and 4 nM against Cholinesterase [5].

As for `COc1ccc(NC(=O)Oc2ccc3c(c2)[C@]2(C)CCN(C)[C@@H]2N3C)cc1`, the IC50 at Acetylcholinesterase [1] is 1700 nM; at Cholinesterase [4] it was 230 nM; on Cholinesterase [5], 71 nM.

For the compound `C=CCN1CC[C@@]2(C)c3cc(OC(=O)NC)ccc3N(C)[C@@H]12`, the values for the IC50 against Cholinesterase [4] and at Cholinesterase [5] were 16 nM and 3 nM, respectively.

These data come from ChEMBL document CHEMBL1124889, “Alfred Burger award address. Bioactive alkaloids. 4. Results of recent investigations with colchicine and physostigmine” (J Med Chem, 1990).
